According to patent US20240018145A1, “[…]-DEPENDENT EN[…] TREATING OR […]” (priority 2020, published 2024):

The compounds below were run on FLU A (PR/8/34) (assay: Flu A Neuraminidase Antiviral Assay). Conditions: MDCK, 48 h.
Format: cell-based
Work on `CC(C)O[C@H]1CC[C@H]2N(C)C(=O)c3c(O)c(=O)ccn3N2[C@@H]1c1ccccc1` [Compound 155, (1R,2S,4aS)-7-hydroxy-2-isopropoxy-5-methyl-1-phenyl-1,2,3,4,4a,5-hexahydrodipyrido[1,2-b:2′,1′-f][1,2,4]triazine-6,8-dione] yielded an EC50 of 185 nM. In the case of `CC(C)O[C@@H]1CC[C@H]2N(C)C(=O)c3c(O)c(=O)ccn3N2[C@@H]1c1ccccc1` [Compound 156, (1R,2R,4aS)-7-hydroxy-2-isopropoxy-5-methyl-1-phenyl-1,2,3,4,4a,5-hexahydrodipyrido[1,2-b:2′,1′-f][1,2,4]triazine-6,8-dione], the EC50 is reported as 38 nM. `CN1C(=O)c2c(O)c(=O)ccn2N2[C@H](c3ccccc3)[C@H](OCc3ccc(F)c(F)c3)CC[C@@H]12` [Compound 157, (1R,2R,4aS)-2-((3,4-difluorobenzyl)oxy)-7-hydroxy-5-methyl-1-phenyl-1,2,3,4,4a,5-hexahydrodipyrido[1,2-b:2′,1′-f][1,2,4]triazine-6,8-dione] was tested, and the EC50 was 336 nM. For `CN1C(=O)c2c(O)c(=O)ccn2N2[C@H](c3ccccc3)[C@H](OCC3CCCC3)CC[C@@H]12` [Compound 158, (1R,2R,4aS)-2-(cyclopentylmethoxy)-7-hydroxy-5-methyl-1-phenyl-1,2,3,4,4a,5-hexahydrodipyrido[1,2-b:2′,1′-f][1,2,4]triazine-6,8-dione], the EC50 was 102 nM. For `CN1C(=O)c2c(O)c(=O)ccn2N2[C@H](c3ccccc3)[C@H](OCC3(C#N)CCC3)CC[C@@H]12` [Compound 159, 1-((((1R,2R,4aS)-7-hydroxy-5-methyl-6,8-dioxo-1-phenyl-1,2,3,4,4a,5,6,8-octahydrodipyrido[1,2-b:2′,1′-f][1,2,4]triazin-2-yl)oxy)methyl)cyclobutane-1-carbonitrile], the EC50 was 210 nM. `CN1C(=O)c2c(O)c(=O)ccn2N2[C@H](c3ccccc3)[C@H](OCC3CCC3)CC[C@@H]12` [Compound 160, (1R,2R,4aS)-2-(cyclobutylmethoxy)-7-hydroxy-5-methyl-1-phenyl-1,2,3,4,4a,5-hexahydrodipyrido[1,2-b:2′,1′-f][1,2,4]triazine-6,8-dione] was tested, and the EC50 was 18.1 nM. Compound `CC(C)CCO[C@@H]1CC[C@H]2N(C)C(=O)c3c(O)c(=O)ccn3N2[C@@H]1c1ccccc1` [Compound 161, (1R,2R,4aS)-7-hydroxy-2-(isopentyloxy)-5-methyl-1-phenyl-1,2,3,4,4a,5-hexahydrodipyrido[1,2-b:2′,1′-f][1,2,4]triazine-6,8-dione] has an EC50 of 120 nM. Compound `CN1C(=O)c2c(O)c(=O)ccn2N2[C@H](c3ccccc3)[C@H](OCCF)CC[C@@H]12` [Compound 162, (1R,2R,4aS)-2-(2-fluoroethoxy)-7-hydroxy-5-methyl-1-phenyl-1,2,3,4,4a,5-hexahydrodipyrido[1,2-b:2′,1′-f][1,2,4]triazine-6,8-dione] has an EC50 of 195 nM. `COCCCO[C@@H]1CC[C@H]2N(C)C(=O)c3c(O)c(=O)ccn3N2[C@@H]1c1ccccc1` [Compound 163, (1R,2R,4aS)-7-hydroxy-2-(3-methoxypropoxy)-5-methyl-1-phenyl-1,2,3,4,4a,5-hexahydrodipyrido[1,2-b:2′,1′-f][1,2,4]triazine-6,8-dione] was tested, and the EC50 was 270 nM. `COC1(c2ccccc2)CCCC2C1n1ccc(=O)c(O)c1C(=O)N2C` (stereo not shown) [Compound 167, 7-hydroxy-1-methoxy-5-methyl-1-phenyl-1,3,4,4a,5,11a-hexahydro-2H-pyrido[1,2-a]quinoxaline-6,8-dione] was tested, and the EC50 was 109 nM.
